Test results from ChEMBL document CHEMBL1201862, “PubChem BioAssay data set” (2004).
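Five concentrations, 48 hours, 96-well plates. The concentration for 50% growth inhibition is given as GI50.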 Calls of active or inactive are those of the source. Rule as the data show it: active = GI50 up to about 1.1 µM and inactive = higher.

Columns and labels:
Assay in all cases: NCI anticancer screen, dose series, 48 h
[1] = system: NCI-H226
[2] = system: OVCAR-3
[3] = system: A498
[4] = system: SNB-75
[5] = system: UACC-257
[6] = system: SN12C
[7] = system: ACHN
[8] = system: SR
[9] = system: RXF 393
[10] = system: OVCAR-8
[11] = system: LOX IMVI
[12] = system: HCC 2998
[13] = system: TK-10
[14] = system: SK-MEL-5
[15] = system: MDA-N
[16] = system: SF-295
[17] = system: KM12
[18] = system: DU-145
[19] = system: NCI-H460
[20] = system: MDA-MB-435

SMILES | GI50 [1] | GI50 [2] | GI50 [3] | GI50 [4] | GI50 [5] | GI50 [6] | GI50 [7] | GI50 [8] | GI50 [9] | GI50 [10] | GI50 [11] | GI50 [12] | GI50 [13] | GI50 [14] | GI50 [15] | GI50 [16] | GI50 [17] | GI50 [18] | GI50 [19] | GI50 [20]
CC(=O)OC12c3ccccc3C(c3ccccc31)C1C(=O)N(c3ccccc3O)C(=O)C12 (stereo not given) | > 100 µM (inactive) | 90.8 µM (inactive) | 90.2 µM (inactive) | 46.3 µM (inactive) | > 100 µM (inactive) | > 100 µM (inactive) | > 100 µM (inactive) | > 100 µM (inactive) | > 100 µM (inactive) | > 100 µM (inactive) | > 100 µM (inactive) | > 100 µM (inactive) | > 100 µM (inactive) | > 100 µM (inactive) | > 100 µM (inactive) | 80.2 µM (inactive) | 92.7 µM (inactive) | > 100 µM (inactive) | > 100 µM (inactive) | –
O=S(=O)(Sc1ccc(Cl)cc1)c1ccc(Cl)cc1 | 16.7 µM (inactive) | 15.5 µM (inactive) | 15.9 µM (inactive) | 17.7 µM (inactive) | 16.6 µM (inactive) | 12.4 µM (inactive) | 16.1 µM (inactive) | 10.5 µM (inactive) | 15.7 µM (inactive) | 16.1 µM (inactive) | 11.6 µM (inactive) | 17.6 µM (inactive) | 21.4 µM (inactive) | 15.2 µM (inactive) | – | 12.2 µM (inactive) | 14.7 µM (inactive) | – | 17.1 µM (inactive) | –
C[C@@H]1OC(=O)C[C@H]2CC(=O)N(CCC3CN(S(=O)(=O)C(F)(F)F)c4ccc(Cc5ccc6c(c5)C(CCN5C[C@H]7[C@@H](CC(=O)O[C@H]7C)CC5=O)CN6S(=O)(=O)C(F)(F)F)cc43)C[C@@H]21 (stereo not given in full) | > 100 µM (inactive) | > 100 µM (inactive) | > 100 µM (inactive) | > 100 µM (inactive) | > 100 µM (inactive) | – | > 100 µM (inactive) | – | > 100 µM (inactive) | > 100 µM (inactive) | > 100 µM (inactive) | > 100 µM (inactive) | > 100 µM (inactive) | > 100 µM (inactive) | – | > 100 µM (inactive) | > 100 µM (inactive) | > 100 µM (inactive) | > 100 µM (inactive) | > 100 µM (inactive)
Cc1c(NC(=S)NC(=O)c2ccc([N+](=O)[O-])cc2)c(=O)n(-c2ccccc2)n1C | > 100 µM (inactive) | > 100 µM (inactive) | > 100 µM (inactive) | > 100 µM (inactive) | > 100 µM (inactive) | > 100 µM (inactive) | > 100 µM (inactive) | > 100 µM (inactive) | > 100 µM (inactive) | > 100 µM (inactive) | > 100 µM (inactive) | > 100 µM (inactive) | > 100 µM (inactive) | > 100 µM (inactive) | – | > 100 µM (inactive) | > 100 µM (inactive) | – | > 100 µM (inactive) | –
CC1=C(O)C(=O)C2C(=O)C1C(C)C2c1ccccc1 (stereo not given) | > 100 µM (inactive) | > 100 µM (inactive) | > 100 µM (inactive) | > 100 µM (inactive) | > 100 µM (inactive) | – | > 100 µM (inactive) | > 100 µM (inactive) | > 100 µM (inactive) | > 100 µM (inactive) | > 100 µM (inactive) | > 100 µM (inactive) | > 100 µM (inactive) | > 100 µM (inactive) | – | > 100 µM (inactive) | > 100 µM (inactive) | – | – | –
N#Cc1cc(-c2nc3cc(F)ccc3s2)ccc1N | 3.34 µM (inactive) | 19.8 µM (inactive) | 3.39 µM (inactive) | 1.59 µM (inactive) | > 100 µM (inactive) | > 100 µM (inactive) | 1.36 µM (inactive) | – | 2.11 µM (inactive) | > 67.9 µM (inactive) | > 100 µM (inactive) | < 0.01 µM (active) | 0.034 µM (active) | – | – | 20.4 µM (inactive) | 0.059 µM (active) | 53.1 µM (inactive) | < 0.0226 µM (active) | > 78.3 µM (inactive)
COC1OC(C)C(NC(=O)OCC(Cl)(Cl)Cl)C2OC(C)(C)OC12 (stereo not given) | > 100 µM (inactive) | > 100 µM (inactive) | > 100 µM (inactive) | – | > 100 µM (inactive) | > 100 µM (inactive) | > 100 µM (inactive) | > 100 µM (inactive) | > 100 µM (inactive) | > 100 µM (inactive) | > 10 µM (inactive) | > 100 µM (inactive) | > 100 µM (inactive) | > 100 µM (inactive) | – | > 100 µM (inactive) | > 100 µM (inactive) | > 100 µM (inactive) | > 100 µM (inactive) | > 100 µM (inactive)
C[C@]12CCc3nonc3C1CC[C@@H]1C2CC[C@]2(C)C(=O)/C(=N\O)CC12 (stereo not given in full) | > 100 µM (inactive) | > 100 µM (inactive) | > 100 µM (inactive) | 28.1 µM (inactive) | > 100 µM (inactive) | > 100 µM (inactive) | > 100 µM (inactive) | > 100 µM (inactive) | 3.87 µM (inactive) | > 100 µM (inactive) | 46 µM (inactive) | > 100 µM (inactive) | > 100 µM (inactive) | > 100 µM (inactive) | – | > 100 µM (inactive) | > 100 µM (inactive) | – | > 100 µM (inactive) | –
CCCNC(=O)Nc1ccc2c(c1)Cc1cc(N(CCCl)CCCl)ccc1-2 | – | 22.1 µM (inactive) | 10.6 µM (inactive) | – | 41.7 µM (inactive) | 33 µM (inactive) | 5.47 µM (inactive) | 1.32 µM (inactive) | 15.5 µM (inactive) | 26.9 µM (inactive) | 12.2 µM (inactive) | 28.2 µM (inactive) | 61.9 µM (inactive) | 13.7 µM (inactive) | – | 14.2 µM (inactive) | 22 µM (inactive) | 14.6 µM (inactive) | 7.16 µM (inactive) | 21.1 µM (inactive)
COC(=O)c1[nH]c(=S)[nH]c(=O)c1-c1ccc(Cl)cc1 | > 50 µM (inactive) | > 50 µM (inactive) | > 50 µM (inactive) | > 50 µM (inactive) | > 50 µM (inactive) | > 50 µM (inactive) | > 50 µM (inactive) | > 50 µM (inactive) | > 50 µM (inactive) | > 50 µM (inactive) | > 50 µM (inactive) | > 50 µM (inactive) | > 50 µM (inactive) | > 50 µM (inactive) | – | > 50 µM (inactive) | > 50 µM (inactive) | – | > 50 µM (inactive) | –
CS(=O)(=O)O[C@H]1CN2C[C@@H](O)[C@@H](O)[C@H]2[C@H]1CO.[B] | > 100 µM (inactive) | > 100 µM (inactive) | > 100 µM (inactive) | – | > 100 µM (inactive) | – | > 100 µM (inactive) | > 100 µM (inactive) | > 100 µM (inactive) | > 100 µM (inactive) | > 100 µM (inactive) | > 100 µM (inactive) | > 100 µM (inactive) | > 100 µM (inactive) | – | > 100 µM (inactive) | > 100 µM (inactive) | > 100 µM (inactive) | > 100 µM (inactive) | > 100 µM (inactive)
N#CC1=C(Cl)NC(Cl)=C(C#N)C1c1c(Cl)cccc1Cl | > 100 µM (inactive) | 25.1 µM (inactive) | 94.6 µM (inactive) | 34.4 µM (inactive) | 22.1 µM (inactive) | 24.7 µM (inactive) | 39.1 µM (inactive) | 40.7 µM (inactive) | 22.6 µM (inactive) | 26.1 µM (inactive) | 17.3 µM (inactive) | 24.1 µM (inactive) | 36.5 µM (inactive) | 21.5 µM (inactive) | – | 41.7 µM (inactive) | 21.8 µM (inactive) | – | 18.4 µM (inactive) | –
CC(=O)Nc1ccc(/C=N\N2C(=O)c3ccccc3C2=O)cc1 | > 100 µM (inactive) | > 100 µM (inactive) | > 100 µM (inactive) | > 100 µM (inactive) | > 100 µM (inactive) | > 100 µM (inactive) | > 100 µM (inactive) | > 100 µM (inactive) | > 100 µM (inactive) | > 100 µM (inactive) | > 100 µM (inactive) | > 100 µM (inactive) | > 100 µM (inactive) | > 100 µM (inactive) | – | > 100 µM (inactive) | > 100 µM (inactive) | – | > 100 µM (inactive) | –
Nc1nc(NNc2cccc(F)c2)cc(=O)[nH]1 | > 100 µM (inactive) | 24.9 µM (inactive) | > 100 µM (inactive) | – | > 100 µM (inactive) | 65.8 µM (inactive) | 43.6 µM (inactive) | 27 µM (inactive) | – | 42.4 µM (inactive) | 21.1 µM (inactive) | 35.5 µM (inactive) | > 100 µM (inactive) | 42.7 µM (inactive) | – | 33.3 µM (inactive) | 22.4 µM (inactive) | 81.3 µM (inactive) | 44 µM (inactive) | 25.9 µM (inactive)
CN(C)/C=N\c1nncc2[nH]cnc12 | > 100 µM (inactive) | > 100 µM (inactive) | > 100 µM (inactive) | > 100 µM (inactive) | 92.7 µM (inactive) | > 100 µM (inactive) | > 100 µM (inactive) | – | – | > 100 µM (inactive) | 55.8 µM (inactive) | > 100 µM (inactive) | 73.6 µM (inactive) | > 100 µM (inactive) | 79.8 µM (inactive) | > 100 µM (inactive) | > 100 µM (inactive) | – | – | 63.5 µM (inactive)
NC(=O)Nc1c(Cl)cc(S(N)(=O)=O)cc1Cl | > 100 µM (inactive) | > 100 µM (inactive) | – | > 100 µM (inactive) | > 100 µM (inactive) | > 100 µM (inactive) | – | – | > 100 µM (inactive) | > 100 µM (inactive) | > 100 µM (inactive) | – | > 100 µM (inactive) | > 100 µM (inactive) | > 100 µM (inactive) | > 100 µM (inactive) | > 100 µM (inactive) | > 100 µM (inactive) | – | > 100 µM (inactive)
